Source: patent US20100029568A1, “TIGHTER-BINDING C-PEPTIDE INHIBITORS OF HIV-1 ENTRY” (priority 2007, published 2010)
Read-outs that look alike come from different tables or passages of the source. Ends that are not written are not given here.

Legend:
[1] = system: HIV-1 Res 4 (SDTV); assay type: cell-based; details: Table 2
[2] = system: HIV-1 pseudotyped with wild type Env from strain HXB2 (HOS-CD4 target cells); assay type: cell-based
Experimental: (§1) All viral infectivity and cell-cell fusion experiments were performed as described in Chan, D., et. al., 1998, Proc. Natl. Acad. Sci. U.S.A. 95, 15613-15617. Briefly, the potency of C-peptides in inhibiting viral infection was determined using recombinant luciferase-expressing HIV-1 as described by Malashkevich, V. N., et. al., 1998, Proc. Natl. Acad. Sci. USA 95, 9134-9139. To produce virus, 293T cells were co-transfected with the envelope-deficient HIV-1 genome NL43LucR-E-(21) and the HXB2 gp160 expression vector pCMVHXB2 gp160 using calcium phosphate. Viral supernatants were cleared of cellular debris by low-speed centrifugation and used to infect HOS-CD4/Fusin cells (N. Landau, National Institutes of Health AIDS Reagent Program) in the presence of varying concentrations of C-peptide, ranging from 0 to 200 nM. Cells were harvested 48 hr postinfection, and luciferase activity was measured in a Wallac (Gaithersburg, Md.) AutoLumat LB953 luminometer. The IC50 is the peptide concentration that results in a 50% decrease in activity relative to control samples lacking peptide. For each peptide, data from three experiments were fit to a Langmuir equation [y=k/(1+([peptide]/IC50)], where y=luciferase activity and k is a scaling constant] to obtain the IC50 values.
(§2) HOS-CD4-Les cells were infected with HIV-1 pseudotyped with Env from HXB2 HIV-1 strain of either the wild type sequence or one of three variant sequences that confer resistance to C-peptides. The sequences of Res1 and Res2 Env, defined in FIG. 1, contain mutations in the gp41 HR1 region that decrease C-peptide binding affinity. The sequence of Res3 contains a mutation in the gp41 HR2 region (N637K) that confers partial resistance by enhancing the rate of viral membrane fusion. The IC50 (±SEM) values represent the mean of 2 or 3 independent titrations of the indicated C-peptide.
(§3) The C37 variants generated were able to overcome resistance conferred by the HR1 region mutations. In FIG. 2, viruses pseudotyped with either wild type Env (closed squares) or V549E mutant Env (Res1, closed circles) from strain HXB2 were utilized to infect HOS-CD4-Les target cells. Infection took place in the presence and absence of C37 (FIG. 2A), C37-KYI (FIG. 2B) or (C37-GC)2 (FIG. 2C) and quantified by the expression of a luciferase-reporter construct. The IC50 values are indicated on the graph. A mutant variant of C37 with two substitutions (N637K and T6391), hereafter denoted C37-KYI, binds to a structural mimic of the gp41 HR1 region, the N-peptide known as N36 with an estimated equilibrium dissociation constant (Kd) of 40 fM, more than 20-fold lower than the Kd for wild type C37 (FIG. 2). The Hr1 and HR2 regions of three gp41 form an intermediate structure called the trimer-of-hairpins which is necessary for the viral entry process and membrane fusion with the host membrane.

[3] = system: HIV-1 pseudotyped with V549E mutant Env (Res1, V38E) from strain HXB2; assay type: cell-based
Experimental: as §1, §2, §3

[4] = system: HIV-1 Res 2 (L33S); assay type: cell-based; details: Table 2
Experimental: as §1, §2

[5] = system: HIV-1 pseudotyped with Res 3 Env (HR2 mutant, N637K), HXB2; assay type: cell-based
Experimental: as §1, §2

[6] = system: HIV-1 with resistance mutations at the gp41 HR1 region; test: Viral infectivity, C-peptide-resistant HIV-1 (HR1 region resistance mutations, text statements); assay type: cell-based
Experimental: as §1, with “values. […]” for “values.”

[7] = system: HIV entry; details: read-out: IC50 against HIV entry; cited from earlier work
[8] = system: HIV-1 with resistance mutations at the gp41 HR1 region; details: read-out: IC50 after emergence of resistance mutations; cited from earlier work
[9] = Table 2, read-out: IC50, WT HXB2
[10] = Table 1, HXB2 wild type Env, HOS-CD4-Les cells, mean of 2 or 3 titrations, read-out: IC50 (±SEM), WT Env

Row | Compound | IC50 [1] [nM] | IC50 [2, 9] [nM] | IC50 ([2]; read-out: IC50 against viruses pseudotyped with EnvHXB2) [nM] | IC50 ([3]; Table 2, read-out: IC50, Res 1 (V38E)) [nM] | IC50 [4] [nM] | IC50 ([5]; Table 2, read-out: IC50, Res 3 (N123K/L204I)) [nM] | fold reduction in inhibitory potency by HR1 region resistance mutations [6] [fold] | IC50 [2, 10] [nM] | inhibition of wild type virus compared to monomeric C37 ([2]; in words) | IC50 ([3]; Table 1, HOS-CD4-Les cells, read-out: IC50 (±SEM), Res 1 Env (HR1 mutant)) [nM] | IC50 [7] [nM] | IC50 ([5]; Table 1, HOS-CD4-Les cells, read-out: IC50 (±SEM), Res 3 Env (HR2 mutant)) [nM] | IC50 [8] [nM]
1 | CC[C@H](C)[C@H](NC(=O)[C@H](CC(C)C)NC(=O)[C@H](CO)NC(=O)[C@H](Cc1c[nH]cn1)NC(=O)[C@@H](NC(=O)[C@H](CC(C)C)NC(=O)[C@H](CO)NC(=O)[C@@H](NC(=O)[C@H](Cc1ccc(O)cc1)NC(=O)[C@H](CC(N)=O)NC(=O)[C@H](CC(N)=O)NC(=O)[C@@H](NC(=O)[C@H](CCC(=O)O)NC(=O)[C@H](CCCNC(=N)N)NC(=O)[C@H](CC(=O)O)NC(=O)[C@H](Cc1c[nH]c2ccccc12)NC(=O)[C@H](CCC(=O)O)NC(=O)[C@H](CCSC)NC(=O)[C@H](Cc1c[nH]c2ccccc12)NC(=O)[C@@H](NC(=O)[C@@H](NC(=O)[C@H](Cc1c[nH]cn1)NC(=O)CNC(=O)CN)[C@@H](C)O)[C@@H](C)O)[C@@H](C)CC)[C@@H](C)O)[C@@H](C)CC)C(=O)N[C@@H](CCC(=O)O)C(=O)N[C@@H](CCC(=O)O)C(=O)N[C@@H](CO)C(=O)N[C@@H](CCC(N)=O)C(=O)N[C@@H](CC(N)=O)C(=O)N[C@@H](CCC(N)=O)C(=O)N[C@@H](CCC(N)=O)C(=O)N[C@@H](CCC(=O)O)C(=O)N[C@@H](CCCCN)C(=O)N[C@@H](CC(N)=O)C(=O)N[C@@H](CCC(=O)O)C(=O)N[C@@H](CCC(N)=O)C(=O)N[C@@H](CCC(=O)O)C(=O)N[C@@H](CC(C)C)C(=O)N[C@@H](CC(C)C)C(=O)NCC(=O)NCC(=O)N[C@@H](Cc1c[nH]cn1)C(=O)N[C@@H](Cc1c[nH]cn1)C(=O)N[C@@H](Cc1c[nH]cn1)C(=O)N[C@@H](Cc1c[nH]cn1)C(=O)N[C@@H](Cc1c[nH]cn1)C(=O)N[C@@H](Cc1c[nH]cn1)C(=O)O [C37] | 53 ± 15 | 1.3 ± 0.2 | ~1 | 126 ± 24 | 1.3 ± 0.4 | 7.1 ± 3.6 | 100 |  |  |  |  |  | 
2 | (C37-GC)2: Disulfide-crosslinked dimeric C37 variant containing a Cys residue at the peptide's C-terminus (added Gly-Cys) (HTTWMEWDREINNYTSLIHSLIEESQNQQEKNEQELLGC; also: disulfide-crosslinked homodimer via C-terminal Cys) |  |  |  |  |  |  |  | 0.3 | not significantly better | 0.3 |  |  | 
3 | enfuvirtide | 900 ± 150 | 2.3 ± 1 |  |  |  |  |  | 1.7 ± 0.4 |  |  | ~1 | 6.4 ± 1.5 | > 900
